In US11564394B2, “Distorted gold (I)-phosphine complexes and methods for use as antifungal agents” (University of Kentucky Research Foundation, priority 2019, dated 2023) one finds MIC data, which are given here for 1 compound.

Where two headings read alike, the source gives them in different places.

What all share (assay): MIC determination (broth microdilution)
Format in all cases: cell-based, Candida auris
Settings in all cases: Candidozyma auris

Experiment [1] relates to C. auris AR Bank # 0383 (strain III).
In experiment [2] the test system is C. auris AR Bank # 0388 (strain VII).
The subject of experiment [3] is C. auris AR Bank # 0381 (strain I).
The subject of experiment [4] is C. auris AR Bank # 0386 (strain V).
The subject of experiment [5] is C. auris AR Bank # 0384 (strain K).
For experiment [6], the system named is C. auris AR Bank # 0390 (strain L).
The test system of experiment [7] is C. auris AR Bank # 0385 (strain IV).
Experiment [8] concerns C. auris AR Bank # 0382 (strain II).
The subject of experiment [9] is C. auris AR Bank # 0387 (strain VI).
For experiment [10], the system named is C. auris AR Bank # 0389 (strain VIII).

Take `CC[C@H](C)C[C@H](C)CCCCCCCCC(=O)N[C@H]1C[C@@H](O)[C@@H](NCCN)NC(=O)[C@@H]2[C@@H](O)CCN2C(=O)[C@H]([C@H](O)CCN)NC(=O)[C@H]([C@H](O)[C@@H](O)c2ccc(O)cc2)NC(=O)[C@@H]2C[C@@H](O)CN2C(=O)[C@H]([C@@H](C)O)NC1=O` [CAS, caspofungin]: the minimum inhibitory concentration (MIC) is 1.95 µg/mL in [1]; 1.8 µM in [1] (read-out: MIC (in parentheses)); 31.3 µg/mL in experiment [2]; 28.6 µM in [2] (read-out: MIC (in parentheses)); less than 0.98 µg/mL in experiment [3]; less than 0.9 µM in experiment [3] (read-out: MIC (in parentheses)). Moreover, the MIC was found to be 7.8 µg/mL in [4]; 7.1 µM in experiment [4] (read-out: MIC (in parentheses)); 1.95 µg/mL in [5]; 1.8 µM in [5] (read-out: MIC (in parentheses)); 7.8 µg/mL in [6]; 7.1 µM in experiment [6] (read-out: MIC (in parentheses)). In addition, the MIC in experiment [7] was less than 0.98 µg/mL; in experiment [7] (read-out: MIC (in parentheses)) it was less than 0.9 µM; in [8], less than 0.98 µg/mL; in [8] (read-out: MIC (in parentheses)) it was less than 0.9 µM; in experiment [9], 31.3 µg/mL; in experiment [9] (read-out: MIC (in parentheses)) it was 28.6 µM. Moreover, the MIC in experiment [10] is 7.8 µg/mL; in [10] (read-out: MIC (in parentheses)) it was 7.1 µM.
